Data as given in PubChem BioAssay AID2305 (GlaxoSmithKline (GSK), 2010).

The compounds below were run on P. falciparum 3D7 growth, pLDH absorbance (assay: P. falciparum 3D7 growth inhibition, dose response, strain 3D7 (AID 2305)).
In the case of `Cc1cccc2[nH]c(-c3cccc(-c4cccc(CNCc5ccc(S(C)(=O)=O)cc5)c4)c3)nc12`, the IC50 is reported as 300 nM.
With `COc1ccc(NC(=O)/C=C/c2ccccc2Cl)cc1OCCN1CCC(N2CCCC2)CC1` the IC50 was 790 nM.
`CN1CCCc2cc(NC(=O)C=Cc3ccc(-c4ccc(F)cc4F)o3)ccc2C1` gave an IC50 of 780 nM.
With `CCCC(C)Nc1nc(C)cc(N[C@@H](Cc2ccccc2)C(=O)NCCOc2ccccc2)n1` (some centres not stated) the IC50 was 700 nM.
For `Cc1[nH]c(C)c(-c2ccc(OCc3ccccc3C(F)(F)F)nc2)c(=O)c1Br`, the IC50 was 20 nM.
`CC(=O)Nc1ccc(CN(Cc2cccc(OC(C)(C)C)c2)Cc2ccc3c(c2)OCCO3)cc1` was tested, and the IC50 was 140 nM.
`COc1ccc(CNC(=O)c2cnc3cc(-c4c(C)noc4C)ccc3c2Nc2ccccc2C(C)(C)C)cc1` showed an IC50 of 1300 nM.
Work on `CC(=O)NCCNCc1cccc(C(=O)NCc2cccc(C(F)(F)F)c2)c1` yielded an IC50 of 1080 nM.
Work on `O=C(c1ccc([N+](=O)[O-])o1)N1CCC(Cc2ccc(C(F)(F)F)cc2)CC1` yielded an IC50 of 170 nM.
Compound `COc1ccc(CCNCCCCCCNCCc2ccccc2Cl)cc1OC` has an IC50 of 660 nM.
With `O=C(CSc1nccn1C1CCCCC1)Nc1cc(C(F)(F)F)ccc1Cl` the IC50 was 400 nM.
`O=C(Nc1ccccc1Cl)c1cc2ccccc2cc1O` showed an IC50 of 1010 nM.
For `Cc1cc(CNCCCCCCNCc2ccc(-c3ccccc3)cc2)ccc1O`, the IC50 was 900 nM.
In the case of `COc1ccc(N2CCN(CCCOc3ccc(NC(=O)c4cc(Cl)cc(Cl)c4)cc3)CC2)c(OC)c1`, the IC50 is reported as 900 nM.
With `CN1CCC(N2CCN(Cc3cccc(-c4ccc(-c5nc6ccc(F)cc6[nH]5)cc4)c3)CC2)CC1` the IC50 was 110 nM.
Compound `CCC(=O)Nc1nnc(Cc2ccc(OC)c(OC)c2)s1` has an IC50 of 910 nM.
In the case of `Cc1ccc(C2(C)CC(C)(C)N(C(=O)COc3ccc4ccccc4c3)c3ccccc32)cc1` (configuration not stated), the IC50 is reported as 110 nM.
`CN(C)c1cc(NC(=O)Nc2ccccc2)c2ccccc2n1` was tested, and the IC50 was 410 nM.
In the case of `O=C(Nc1cccc(CN2CCN(Cc3ccc(O)cc3)CC2)c1)c1ccc(-c2ccccc2)cc1`, the IC50 is reported as 250 nM.
In the case of `CCCCNC(=O)[C@@H](NC(=O)c1ccc(O)c(-c2ccc(Cl)c(Cl)c2)c1)C(C)C`, the IC50 is reported as 230 nM.
Compound `Cc1ccc(NC(=O)c2ccc(NCCCN(C)Cc3ccccc3)c([N+](=O)[O-])c2)cc1F` has an IC50 of 700 nM.
With `CN1CCN(c2ccc3nc(-c4ccc(Cc5cc(Cl)ccc5OCc5ccccc5)o4)[nH]c3c2)CC1` the IC50 was 810 nM.
`CCCCOc1c(CCNCCCCNCCc2cc(F)c3ccccc3c2OCCCC)cc(F)c2ccccc12` gave an IC50 of 630 nM.
`COc1ccc(NCCCNc2ccnc3ccccc23)cc1` was tested, and the IC50 was 970 nM.
`CCCCn1c(-c2ccco2)nc2c(c(=O)c3ccccc3n2C)c1=O` showed an IC50 of 1240 nM.
`N#Cc1cccc(C(=O)Nc2ccc(-c3cccc(CN4CCC(O)CC4)c3)cc2)c1` gave an IC50 of 1000 nM.
`CN(C)CC(O)C(c1ccccc1)c1cccc(Br)c1` (configuration not stated) was tested, and the IC50 was 160 nM.
Compound `CN(C)C(=S)N=Nc1c(O)[nH]c2ccc(OC(F)(F)F)cc12` has an IC50 of 1020 nM.
Work on `CCn1c(-c2nc(-c3ccnc(N4CCN(C)CC4)c3)cnc2N)nc2cc(S(C)(=O)=O)ccc21` yielded an IC50 of 810 nM.
Work on `O=C(C=CC(=O)N1CCCCC1)NCc1ccccc1` yielded an IC50 of 730 nM.
For `CN(CCCCNC(=O)c1ccc(-c2ccccc2)cc1)C1CCc2c(O)cccc2C1` (configuration not stated), the IC50 was 720 nM.
In the case of `COc1ccc2nccc(NC(=O)N3CCC(NCCOc4cc(F)cc(F)c4)CC3)c2n1`, the IC50 is reported as 770 nM.
Compound `O=C(CC1NC(=O)c2ccccc21)Nc1ccc(-c2ccc(-c3nc4ccc(C(F)(F)F)cc4[nH]3)cc2)cc1` (configuration not stated) has an IC50 of 470 nM.
`Cc1cc(C(F)(F)F)cc(-n2ncc(-c3ccc(C(=O)NCCNCc4ccccc4)cc3)c2N)n1` was tested, and the IC50 was 1070 nM.
For `Cc1ccccc1C1CCN(c2ncc(C(=O)Nc3ccccc3)cc2Cl)CC1`, the IC50 was 1010 nM.
Compound `CCOc1cc2ncnc(Nc3ccc(OCc4c(F)cccc4F)c(OC)c3)c2cc1OCC` has an IC50 of 820 nM.
For `CN(C)C(CNC(=O)c1cc(-c2ccncc2)c(-c2ccc(NC(=O)Nc3cccc(F)c3)cc2)o1)c1ccccc1` (configuration not stated), the IC50 was 770 nM.
With `CN(C)c1ccc(C=CC(=O)NC(=O)c2ccccc2O)cc1` the IC50 was 230 nM.
`CN(C)CCNC(=O)NC1CN(c2ncnc3cc(-c4ccccc4)sc23)C1` showed an IC50 of 580 nM.
`C[C@@H]1CC[C@H](NC(=O)[C@H](CC2CCCC2)NC(=O)N2CCNCC2)C(=O)CN1S(=O)(=O)c1ccccn1` gave an IC50 of 890 nM.
With `COc1ccccc1CNc1ncc(-c2ccsc2)c(-c2nccs2)n1` the IC50 was 330 nM.
`CC(C)(C)c1ccc(OCC(=O)NC2CCN(c3ccnc4cc(Cl)ccc34)C2)cc1` (configuration not stated) showed an IC50 of 130 nM.
`CC(=O)Nc1cccc(C(=O)Nc2cccc(-c3ccc(-c4nc5c(C)cccc5[nH]4)cc3)c2)c1` gave an IC50 of 910 nM.
Work on `COc1ccc2nccc([C@@H](O)CN3CCC(NCc4cc5ccccc5cn4)CC3)c2n1` yielded an IC50 of 920 nM.
`Cc1cc(NN=Cc2ccccc2[N+](=O)[O-])c2ccccc2n1` showed an IC50 of 780 nM.
`CN(C)Cc1cccc(-c2ccc(NC(=O)c3ccc4c(=O)n(C5CCCCC5)cnc4c3)cc2)c1` was tested, and the IC50 was 740 nM.
For `COc1cccc(CN2CCC(C(=O)Nc3ccc(-c4nc5ccccc5[nH]4)cc3)CC2)c1`, the IC50 was 630 nM.
For `Cc1nnc2c(NC(=O)NC3CCCC3)cc3ccc(-c4cccc(CN(C)C)c4)cc3n12`, the IC50 was 1160 nM.
`NC(=O)c1cc2nc(Nc3ccc(F)cc3)nc(Nc3ccc(S(N)(=O)=O)cc3)c2[nH]1` was tested, and the IC50 was 800 nM.
For `COc1ccc(CN(C)CCCc2ccc(NC(=O)Cc3ccc4nc(-c5ccccc5)ccc4c3)cc2)cc1OC`, the IC50 was 530 nM.
For `CC(C)(C)c1ccc(NC(=O)Nc2ccc(Cn3ncc(N4CCCNCC4)c(Cl)c3=O)cc2)cc1`, the IC50 was 750 nM.
`CCCC[C@H](NC(=O)OC(C)(C)C)C(=O)Nc1ccc(Cc2ccc(NC(=O)[C@H](CCCC)NC(=O)OC(C)(C)C)cc2)cc1` was tested, and the IC50 was 730 nM.
In the case of `COc1ccc(NC(=O)/C=C/c2ccc(Cl)c(Cl)c2)cc1N1CCN(C)CC1`, the IC50 is reported as 980 nM.
`CC(=O)N(C)C1CCN(Cc2ccc(-c3cccc(-c4nc5ccc(F)cc5[nH]4)c3)cc2)C1` (configuration not stated) gave an IC50 of 600 nM.
Compound `CC(C)CNCc1cccc(-c2ccc(CN(C(=O)Nc3ccccc3)C3CCN(Cc4ccccc4)CC3)cc2)c1` has an IC50 of 480 nM.
For `Cc1cc(N)nc2ccc(-c3ccc(CN)cc3)cc12`, the IC50 was 620 nM.
`COCCSc1ccc(CC(C)NCC(O)c2cccc(Cl)c2)cc1` (configuration not stated) showed an IC50 of 760 nM.
With `COc1ccc2c(NN=Cc3ccc(OC)c4ccccc34)cc(C)nc2c1` the IC50 was 600 nM.
For `CCC(C)(C)N[C@@H](C)[C@@H](O)c1ccc(C(F)(F)F)cc1`, the IC50 was 750 nM.
Compound `COc1ccc(Nc2ncc3c(-c4cccc(NC(=O)Cc5cccnc5)c4)c[nH]c3n2)cc1OC` has an IC50 of 720 nM.
With `CNC(=O)c1cnc(Nc2ccc(OCC(O)CN(C)C)cc2)nc1Nc1cccc(OC)c1` (configuration not stated) the IC50 was 320 nM.
Compound `COc1ccc(OC(C)CNC(=O)c2cc([N+](=O)[O-])ccc2-c2ccc(OC)cc2)cc1` (configuration not stated) has an IC50 of 1150 nM.
In the case of `CCSc1nc2sc3c(c2c(=O)n1-c1ccccc1)CCN(C)C3`, the IC50 is reported as 460 nM.
In the case of `CNCCNCc1ccc(-c2cccc(-c3nc4ccc(C(F)(F)F)cc4[nH]3)c2)cc1`, the IC50 is reported as 630 nM.
`COc1cccc(C(=O)NC(c2ccc(Cl)cc2Cl)c2cc(Cl)c3cccnc3c2O)c1` (configuration not stated) was tested, and the IC50 was 450 nM.
Compound `CC(=O)Nc1ccc(OCCN(Cc2ccccc2C(F)(F)F)c2ccc(C#N)c(C(F)(F)F)c2)cc1` has an IC50 of 440 nM.
`Cn1cc(CN2CCC(OC(c3ccccc3)c3ccc(Cl)cc3)CC2)cn1` (configuration not stated) was tested, and the IC50 was 840 nM.
In the case of `COC(=O)c1cccc(CNCc2cccc(-c3cccc(-c4nc5ccccc5[nH]4)c3)c2)c1`, the IC50 is reported as 500 nM.
In the case of `CC(=O)Nc1cccc(Nc2nccc(-c3c(-c4cccc(NC(=O)c5c(F)cccc5F)c4)nn4ncccc34)n2)c1`, the IC50 is reported as 180 nM.
Compound `Cc1cc(-c2cccc3c(C(=O)N4CCc5cc6nccc(N7CCCN(C)CC7)c6cc54)cccc23)cc(C)n1` has an IC50 of 440 nM.
`COCC(=O)N(Cc1ccccc1-c1ccc(CNCCc2ccccc2)cc1)C1CCN(Cc2ccccc2)CC1` was tested, and the IC50 was 890 nM.
In the case of `COc1ccc(NC(=O)Nc2cc(C)nc3ccccc23)cc1Cl`, the IC50 is reported as 690 nM.
`Cc1cccc2[nH]c(-c3cccc(-c4ccc(NC(=O)C(C)CN5CCN(C)CC5)cc4)c3)nc12` (configuration not stated) showed an IC50 of 180 nM.
`O=C(Nc1ccc(OC2CCN(Cc3ccc(F)cc3)CC2)c(Cl)c1)c1ccccc1` gave an IC50 of 790 nM.
In the case of `COc1ccc2nccc([C@@H](O)CN3CCC(NC(=O)CCC(=O)c4cc(C(C)(C)C)ccc4OC)CC3)c2c1`, the IC50 is reported as 850 nM.
Compound `CCOC(=O)c1c(C)n(C2CCCCC2)c2cc(Br)c(O)cc12` has an IC50 of 820 nM.
In the case of `O=C(c1ccc(-c2cnc3[nH]cc(-c4ccc(C(=O)N5CCOCC5)cc4)c3c2)cc1)N1CCOCC1`, the IC50 is reported as 1000 nM.
`CCOc1cc(C(C)C)ccc1N1CCN(CCCCNC(=O)c2ccc(NC(=O)c3ccc(Cl)cc3)cc2)CC1` was tested, and the IC50 was 420 nM.
With `COc1cccc(NC(=O)[C@H](C)n2c(=O)[nH]c3ccccc3c2=O)c1` the IC50 was 760 nM.
With `COc1ccc(NC(=O)Nc2ccc(C)c(-c3ccc(C(=O)NCCN4CCCC4)cc3)c2)cc1` the IC50 was 900 nM.
`Cc1ccccc1C1CCN(C2CCC(NC(=O)/C=C/c3cccc(F)c3)CC2)CC1` (configuration not stated) showed an IC50 of 1190 nM.
Work on `O=C(Cc1ccccc1)NC(Nc1ccc([N+](=O)[O-])cc1)C(Cl)(Cl)Cl` (configuration not stated) yielded an IC50 of 970 nM.
Work on `CS(=O)(=O)CCNCc1cccc(-c2cc3c(Nc4ccc5c(cnn5Cc5ccccc5)c4)ncnc3s2)c1` yielded an IC50 of 550 nM.
Compound `CCc1cn2c3c(cc(C(=O)N[C@@H](Cc4cccc(F)c4)[C@H](O)CNC4CCCCC4)cc13)N(C)S(=O)(=O)CC2` has an IC50 of 30 nM.
`Cc1cccc(-c2nc(Nc3ccncc3)c3ccc([N+](=O)[O-])cc3n2)n1` showed an IC50 of 830 nM.
Compound `CC(C)N1CCCN(C(=O)C2CCN(c3ccc(C(=O)N4CCCC4)cn3)CC2)CC1` has an IC50 of 1060 nM.
`Nc1ncc(-c2cccc(CCN3CCOCC3)c2)cc1-c1nc2ccc(Br)cc2[nH]1` was tested, and the IC50 was 280 nM.
For `Clc1ccc(OCc2ccccc2)c(-c2nc(-c3nc4ncc(Br)cc4[nH]3)cs2)c1`, the IC50 was 210 nM.
With `Cc1ccccc1C1CCN(C2CCC(NC(=O)/C=C/c3cc(F)cc(F)c3)CC2)CC1` (configuration not stated) the IC50 was 830 nM.
Work on `CC1CCC2(CC1)N=C(N)N=C(N)N2OCCCCCCCCO` (configuration not stated) yielded an IC50 of 150 nM.
In the case of `COc1ccc(-c2onc(C(F)(F)F)c2-c2ccc(Br)cc2)c(O)c1`, the IC50 is reported as 240 nM.
Work on `O=C(c1cc(C(F)(F)F)cc(C(F)(F)F)c1)N1CC[C@H](CCN2CCC3(CC2)C(=O)NCN3c2ccccc2)C[C@H]1Cc1ccc(Cl)c(Cl)c1` yielded an IC50 of 660 nM.
Work on `Cc1cccc2[nH]c(-c3cccc(-c4cccc(NC(=O)C5CC(=O)Nc6ccccc65)c4)c3)nc12` (configuration not stated) yielded an IC50 of 60 nM.
`CS(=O)(=O)Nc1ccc2c(C3CCN(CC4CCN(C(=O)/C=C/c5ccc(Cl)c(Cl)c5)CC4)CC3)c[nH]c2c1` gave an IC50 of 760 nM.
`CCOC(C(=O)OCC1CCCN(C)C1)(c1ccccc1)c1ccccc1` (configuration not stated) gave an IC50 of 870 nM.
`CCN1[C@@H](c2ccc(Cl)cc2)[C@@H](CNCc2ccccc2O)C[C@@]1(C)CO` was tested, and the IC50 was 310 nM.
In the case of `CCOc1cc(C)ccc1C1CCN(CCCCNC(=O)c2ccc(-c3ccc(Cl)cn3)cc2)CC1`, the IC50 is reported as 1610 nM.
